Results published in patent US10934298B2, “Substituted pyrazolo[1,5-a]pyrimidines for the treatment of medical disorders” (BIAL—BioTech Investments, Inc., priority 2016, dated 2021).

Target: T1, glucocerebrosidase (Gcase) (Homo sapiens, UniProt P04062)
T1 construct: micellar solution containing 10 nM GCase and 100 nM saposin C
T1 sequence (P04062 40-536): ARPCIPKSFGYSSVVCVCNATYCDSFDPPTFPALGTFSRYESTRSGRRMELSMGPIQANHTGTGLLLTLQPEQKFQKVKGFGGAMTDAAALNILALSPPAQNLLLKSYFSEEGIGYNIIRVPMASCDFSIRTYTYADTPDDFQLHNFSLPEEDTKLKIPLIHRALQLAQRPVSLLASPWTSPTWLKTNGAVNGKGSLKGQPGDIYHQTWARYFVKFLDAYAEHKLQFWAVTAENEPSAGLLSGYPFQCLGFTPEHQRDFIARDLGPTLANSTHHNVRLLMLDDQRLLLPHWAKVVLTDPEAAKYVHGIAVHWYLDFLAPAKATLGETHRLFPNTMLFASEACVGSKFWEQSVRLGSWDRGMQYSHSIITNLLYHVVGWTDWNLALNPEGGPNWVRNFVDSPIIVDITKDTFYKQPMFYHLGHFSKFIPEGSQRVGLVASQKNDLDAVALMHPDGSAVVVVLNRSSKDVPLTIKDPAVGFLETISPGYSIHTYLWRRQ
Assay: Glucocerebrosidase (Gcase) activation assay with 4-methylumbelliferyl-beta-D-glucopyranoside substrate, saposin C and phosphatidylserine/triton micelles, fluorescence readout
Type: biochemical
In short: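 Test compounds are first screened at 1.0 and 0.1 μM final, then titrated in 8 points (3-fold from 5 μM) against human GCase with saposin C in phosphatidylserine/triton X-100 micelles at pH 4.7. Reactions run 15 min at room temperature, with fluorescence read at 365/440 nm.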

In the case of `Cc1cc(-c2cc(F)ccc2C#N)nc2c(C(=O)N[C@H](C)C(F)(F)F)cnn12` [III-349], the “Percent Gcase Activation, 0.1 μM Test Compound” value (0.1 μM test compound) is reported as “*** (greater than 20% Gcase activation)” and the “Percent Gcase Activation, 1 μM Test Compound” value (1 μM test compound) is reported as “++ (Gcase activation in the range of 30% up to 60%)”.

With `Cc1cc(-c2ccc3ocnc3c2)nc2c(C(=O)N[C@H](C)C(F)(F)F)cnn12` [III-167] the “Percent Gcase Activation, 0.1 μM Test Compound” value (test compound at 0.1 μM) was “*** (greater than 20% Gcase activation)” and the “Percent Gcase Activation, 1 μM Test Compound” value (test compound at 1.0 μM) was “+++ (Gcase activation greater than 60%)”.

`COc1cc(-c2cc(C)n3ncc(C(=O)NC(C4CC4)C(F)(F)F)c3n2)ccc1F` (stereo not shown) [III-147] was tested, and the “Percent Gcase Activation, 0.1 μM Test Compound” value (test compound at 0.1 μM) was “*** (greater than 20% Gcase activation)” and the “Percent Gcase Activation, 1 μM Test Compound” value (test compound at 1.0 μM) was “+++ (Gcase activation greater than 60%)”.

For `Cc1cc(-c2ccco2)nc2c(C(=O)NC(C3CC3)C(F)(F)F)cnn12` (stereo not shown) [III-186], the “Percent Gcase Activation, 0.1 μM Test Compound” value (test compound at 0.1 μM) was “*** (greater than 20% Gcase activation)” and the “Percent Gcase Activation, 1 μM Test Compound” value (test compound at 1.0 μM) was “+++ (Gcase activation greater than 60%)”.

With `COc1cccc(-c2cc(C)n3ncc(C(=O)NC(C)(C)C(F)(F)F)c3n2)c1` [III-405] the “Percent Gcase Activation, 0.1 μM Test Compound” value (0.1 μM test compound) was “*** (greater than 20% Gcase activation)” and the “Percent Gcase Activation, 1 μM Test Compound” value (1 μM test compound) was “+++ (Gcase activation greater than 60%)”.

`Cc1cc(N2CCC(C)(C)C2=O)nc2c(C(=O)NC(C3CC3)C(F)(F)F)cnn12` (stereo not shown) [III-328] was tested, and the “Percent Gcase Activation, 0.1 μM Test Compound” value (0.1 μM test compound) was “** (Gcase activation in the range of 10% up to 20%)” and the “Percent Gcase Activation, 1 μM Test Compound” value (1 μM test compound) was “+++ (Gcase activation greater than 60%)”.

For `C#CC(C)(C)NC(=O)c1cnn2c(C)cc(-c3cccc(F)c3)nc12` [III-75], the “Percent Gcase Activation, 0.1 μM Test Compound” value (0.1 μM test compound, Table 3A) was “*** (greater than 20% Gcase activation)” and the “Percent Gcase Activation, 1 μM Test Compound” value (1 μM test compound, Table 3A) was “+++ (Gcase activation greater than 60%)”.

For `Cc1cc(N2CCCN(C(C)C)C2=O)nc2c(C(=O)NC(C)(C)C)cnn12` [III-258], the “Percent Gcase Activation, 0.1 μM Test Compound” value (test compound at 0.1 μM) was “* (less than 10% Gcase activation)” and the “Percent Gcase Activation, 1 μM Test Compound” value (test compound at 1.0 μM) was “+ (less than 30% Gcase activation)”.

In the case of `Cc1cc(-n2ccc(F)n2)nc2c(C(=O)N[C@H](C3CC3)C(F)(F)F)cnn12` [III-173], the “Percent Gcase Activation, 0.1 μM Test Compound” value (test compound at 0.1 μM) is reported as “*** (greater than 20% Gcase activation)” and the “Percent Gcase Activation, 1 μM Test Compound” value (test compound at 1.0 μM) is reported as “+++ (Gcase activation greater than 60%)”.

`Cc1cc(N2CC(C)(C)N(C)C2=O)nc2c(C(=O)N[C@H](C3CC3)C(F)(F)F)cnn12` [III-357] was tested, and the “Percent Gcase Activation, 0.1 μM Test Compound” value (0.1 μM test compound) was “** (Gcase activation in the range of 10% up to 20%)” and the “Percent Gcase Activation, 1 μM Test Compound” value (1 μM test compound) was “+++ (Gcase activation greater than 60%)”.

For `COc1cc(F)ccc1-c1cc(C)n2ncc(C(=O)NC(C)C(F)(F)F)c2n1` (stereo not shown) [III-150], the “Percent Gcase Activation, 0.1 μM Test Compound” value (test compound at 0.1 μM) was “*** (greater than 20% Gcase activation)” and the “Percent Gcase Activation, 1 μM Test Compound” value (test compound at 1.0 μM) was “+++ (Gcase activation greater than 60%)”.

For `Cc1cc(C)n2ncc(C(=O)N[C@H]3CC[C@H](OC(C)(C)C)CC3)c2n1` [III-190], the “Percent Gcase Activation, 0.1 μM Test Compound” value (test compound at 0.1 μM) was “* (less than 10% Gcase activation)” and the “Percent Gcase Activation, 1 μM Test Compound” value (test compound at 1.0 μM) was “+ (less than 30% Gcase activation)”.

In the case of `Cc1cc(NC2CC2)nc2c(C(=O)NC(C3CC3)C3CC3)cnn12` [III-78], the “Percent Gcase Activation, 0.1 μM Test Compound” value (0.1 μM test compound, Table 3A) is reported as “*** (greater than 20% Gcase activation)” and the “Percent Gcase Activation, 1 μM Test Compound” value (1 μM test compound, Table 3A) is reported as “+++ (Gcase activation greater than 60%)”.

For `Cc1cc(Cl)n2ncc(C(=O)NC(C)(C)C3CC3)c2n1` [III-14], the “Percent Gcase Activation, 0.1 μM Test Compound” value (0.1 μM test compound, Table 3A) was “** (Gcase activation in the range of 10% up to 20%)” and the “Percent Gcase Activation, 1 μM Test Compound” value (1 μM test compound, Table 3A) was “++ (Gcase activation in the range of 30% up to 60%)”.

For `COc1cc(-c2cc(C)n3ncc(C(=O)NC(C)C(F)(F)F)c3n2)ccc1F` (stereo not shown) [III-148], the “Percent Gcase Activation, 0.1 μM Test Compound” value (test compound at 0.1 μM) was “** (Gcase activation in the range of 10% up to 20%)” and the “Percent Gcase Activation, 1 μM Test Compound” value (test compound at 1.0 μM) was “+++ (Gcase activation greater than 60%)”.

`Cc1oc(C(C)C)nc1-c1cc(C)n2ncc(C(=O)N[C@H](C3CC3)C(F)(F)F)c2n1` [III-332] was tested, and the “Percent Gcase Activation, 0.1 μM Test Compound” value (0.1 μM test compound) was “*** (greater than 20% Gcase activation)” and the “Percent Gcase Activation, 1 μM Test Compound” value (1 μM test compound) was “+++ (Gcase activation greater than 60%)”.

In the case of `Cc1cc(-c2cccnc2)n2ncc(C(=O)NC(C)(C)C3CC3)c2n1` [III-19], the “Percent Gcase Activation, 0.1 μM Test Compound” value (0.1 μM test compound, Table 3A) is reported as “* (less than 10% Gcase activation)” and the “Percent Gcase Activation, 1 μM Test Compound” value (1 μM test compound, Table 3A) is reported as “+ (less than 30% Gcase activation)”.
